Literature values, collected in patent EP2537519A1, “NEUROPATHIC PAIN ALLEVIATING AGENT” (HBC Science Laboratory Co., Ltd, priority 2010, dated 2011).

Molecular target: Cav3.2 (Homo sapiens, UniProt O95180)
Settings: reported by Nelson et al., J Neurosci 2007

Sequence of Cav3.2 (O95180 whole entry): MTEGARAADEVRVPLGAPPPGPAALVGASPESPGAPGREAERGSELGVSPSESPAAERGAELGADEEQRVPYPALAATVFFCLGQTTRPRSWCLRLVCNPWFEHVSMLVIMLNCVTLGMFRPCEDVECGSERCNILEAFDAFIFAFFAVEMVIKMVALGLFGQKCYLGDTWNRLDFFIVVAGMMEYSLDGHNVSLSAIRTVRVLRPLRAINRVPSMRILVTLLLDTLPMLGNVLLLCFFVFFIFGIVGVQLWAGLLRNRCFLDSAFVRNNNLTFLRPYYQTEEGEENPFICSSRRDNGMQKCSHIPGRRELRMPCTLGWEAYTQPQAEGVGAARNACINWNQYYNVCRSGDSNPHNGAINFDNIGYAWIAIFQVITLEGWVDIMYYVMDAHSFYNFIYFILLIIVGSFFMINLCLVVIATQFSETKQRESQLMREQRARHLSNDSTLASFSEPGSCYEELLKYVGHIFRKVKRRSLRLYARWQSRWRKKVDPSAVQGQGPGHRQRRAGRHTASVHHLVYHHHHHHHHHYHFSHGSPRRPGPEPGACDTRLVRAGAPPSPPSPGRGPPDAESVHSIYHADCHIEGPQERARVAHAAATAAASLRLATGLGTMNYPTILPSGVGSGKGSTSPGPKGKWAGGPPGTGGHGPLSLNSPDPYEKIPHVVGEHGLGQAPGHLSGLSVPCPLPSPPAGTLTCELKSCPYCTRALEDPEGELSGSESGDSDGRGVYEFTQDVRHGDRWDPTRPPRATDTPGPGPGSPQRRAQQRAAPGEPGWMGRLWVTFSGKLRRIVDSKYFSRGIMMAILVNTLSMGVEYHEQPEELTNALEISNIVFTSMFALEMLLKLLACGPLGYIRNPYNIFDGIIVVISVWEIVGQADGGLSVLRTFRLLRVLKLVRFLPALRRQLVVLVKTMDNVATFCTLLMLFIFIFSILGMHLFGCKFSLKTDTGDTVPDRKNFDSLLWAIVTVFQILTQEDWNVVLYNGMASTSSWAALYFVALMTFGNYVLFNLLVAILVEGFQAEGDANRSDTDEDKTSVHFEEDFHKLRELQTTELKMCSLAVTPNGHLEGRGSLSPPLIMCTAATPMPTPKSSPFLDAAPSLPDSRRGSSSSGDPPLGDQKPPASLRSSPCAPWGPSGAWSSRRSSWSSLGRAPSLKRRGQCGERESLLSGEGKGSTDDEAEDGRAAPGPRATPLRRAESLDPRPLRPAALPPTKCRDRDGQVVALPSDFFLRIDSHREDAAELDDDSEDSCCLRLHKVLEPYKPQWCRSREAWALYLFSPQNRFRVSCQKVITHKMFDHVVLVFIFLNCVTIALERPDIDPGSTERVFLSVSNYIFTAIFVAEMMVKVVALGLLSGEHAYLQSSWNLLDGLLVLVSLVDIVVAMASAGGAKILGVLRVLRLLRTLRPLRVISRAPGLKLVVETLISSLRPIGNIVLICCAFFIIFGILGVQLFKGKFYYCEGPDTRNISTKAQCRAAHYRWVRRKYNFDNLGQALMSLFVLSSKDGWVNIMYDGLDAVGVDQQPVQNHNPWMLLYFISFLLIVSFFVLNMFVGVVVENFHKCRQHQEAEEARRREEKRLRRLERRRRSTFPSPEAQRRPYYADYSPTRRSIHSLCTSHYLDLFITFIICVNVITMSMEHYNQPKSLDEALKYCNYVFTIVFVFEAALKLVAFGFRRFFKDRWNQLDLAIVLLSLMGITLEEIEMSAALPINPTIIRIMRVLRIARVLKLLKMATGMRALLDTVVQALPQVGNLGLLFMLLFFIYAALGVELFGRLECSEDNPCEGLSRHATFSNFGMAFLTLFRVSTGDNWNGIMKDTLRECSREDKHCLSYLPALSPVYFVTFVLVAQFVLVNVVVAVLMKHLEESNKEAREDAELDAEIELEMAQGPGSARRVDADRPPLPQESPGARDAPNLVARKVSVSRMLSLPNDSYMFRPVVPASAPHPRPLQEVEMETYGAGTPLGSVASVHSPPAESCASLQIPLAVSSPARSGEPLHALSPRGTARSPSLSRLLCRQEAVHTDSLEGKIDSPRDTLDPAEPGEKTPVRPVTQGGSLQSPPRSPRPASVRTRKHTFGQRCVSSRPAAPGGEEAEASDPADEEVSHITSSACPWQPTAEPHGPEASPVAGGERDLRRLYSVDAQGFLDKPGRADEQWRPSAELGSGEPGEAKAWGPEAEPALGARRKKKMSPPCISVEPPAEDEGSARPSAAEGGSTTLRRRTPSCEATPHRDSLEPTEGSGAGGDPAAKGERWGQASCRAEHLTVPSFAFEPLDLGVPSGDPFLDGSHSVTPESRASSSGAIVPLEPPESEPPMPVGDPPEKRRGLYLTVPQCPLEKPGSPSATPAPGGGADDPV

inhibition of Cav3.2 among T-type Ca2+ channels: specifically inhibits
SMILES: O=C1O[C@H]([C@@H](O)CO)C(O)=C1O [ascorbic acid]
